The values below are quoted from earlier work in PMC11686138 (Nature Communications, 2024).

By Kd is commonly meant the equilibrium constant for the complex coming apart.

In this data set the target is CLDN4. The settings on record: reported KD.

As to NSSYSGNYYSIL [Cpe30 MT2], the equilibrium dissociation constant (Kd) is 1.97 nM.
